Results as given in ChEMBL document CHEMBL3045380, “Effects of a prenyl-baicalein derivative on ER (+) MCF-7 and ER () MDA-MB-231 breast tumor cell lines” (2012).
Active and inactive are the calls of the source. The rule behind the calls is not given here.

Columns and labels:
[1] = system: MCF-7; test: Antagonist activity at estrogen receptor in Homo sapiens (human) MCF-7 cells assessed as potentiation of fluvestrant-induced reduction in [3H]thymidine incorporation at 3.13 to 6.25 uM aftestrogen receptor 72 hr by liquid scintillation counting; format: cell-based
[2] = system: MDA-MB-231; test: Cytotoxicity against Homo sapiens (human) ER-deficient MDA-MB-231 cells grown in RPMI medium at 3.13 to 100 uM after 48 hr by SRB assay; format: functional, cell-based
[3] = system: MDA-MB-231; test: Cytotoxicity against Homo sapiens (human) ER-deficient MDA-MB-231 cells after 48 hr by SRB assay; format: functional
[4] = system: MCF-7; test: Antagonist activity at estrogen receptor in Homo sapiens (human) MCF-7 cells assessed as inhibition of 17betaestradiol-induced [3H]thymidine incorporation at 0.1 to 0.78 uM aftestrogen receptor 72 hr by liquid scintillation counting; format: cell-based
[5] = system: MDA-MB-231; test: Antiproliferative activity against Homo sapiens (human) ER-deficient MDA-MB-231 cells grown in steroid free RPMI medium assessed as inhibition of [3H]thymidine incorporation at 3.13 to 100 uM after 72 hr by liquid scintillation counting; format: functional, cell-based
[6] = system: MCF-7; test: Antagonist activity at estrogen receptor in Homo sapiens (human) MCF-7 cells assessed as potentiation of 4-hydroxytamoxifen-induced reduction in [3H]thymidine incorporation aftestrogen receptor 72 hr by liquid scintillation counting; format: cell-based
[7] = system: MDA-MB-231; test: Cytotoxicity against Homo sapiens (human) ER-deficient MDA-MB-231 cells grown in steroid free RPMI medium at 3.13 to 100 uM after 72 hr by SRB assay; format: functional, cell-based
[8] = system: MCF-7; test: Antagonist activity at estrogen receptor in Homo sapiens (human) MCF-7 cells grown in stestrogen receptoroid free RPMI medium assessed as inhibition of [3H]thymidine incorporation at 3.13 to 100 uM aftestrogen receptor 72 hr by liquid scintillation counting; format: cell-based
[9] = system: MCF-7; test: Inhibition of estrogen receptor in Homo sapiens (human) MCF-7 cells grown in RPMI medium assessed as cell death at 3.13 to 100 uM aftestrogen receptor 48 hr by SRB assay; format: cell-based
[10] = system: MCF7; test: Inhibition of ER in Homo sapiens (human) MCF-7 cells grown in steroid free RPMI medium assessed as cell death at 3.13 to 100 uM after 72 hr by SRB assay; format: functional, cell-based
[11] = system: MCF7; test: Cytotoxicity against Homo sapiens (human) MCF-7 cells expressing ER after 48 hr by SRB assay; format: functional
[12] = system: MCF-7; test: Agonist activity at estrogen receptor in Homo sapiens (human) MCF-7 cells grown in stestrogen receptoroid free RPMI medium assessed as incorporation of [3H]thymidine at 0.1 to 0.2 uM aftestrogen receptor 72 hr by liquid scintillation counting; format: cell-based

With `CC(C)=CCOc1cc2oc(-c3ccccc3)cc(=O)c2c(O)c1O` the Activity [1] was “Active”, the Activity [2] was “Active” and the Activity [3] was “Dose-dependent effect”. The GI50 ([3]; MDA-MB-231, 48 h) was 29.7 µM, the inhibition [4] was “Active” and the Activity [5] was “Active”. The Activity [6] was “Dose-dependent effect”, the Activity [7] was “Active” and the inhibition [8] was “Active”. For the same compound, the inhibition [9] was “inactive”, the inhibition [10] was “Active” and the Activity [11] was “Dose-dependent effect”. For the same compound, the GI50 ([11]; MCF7, 48 h) was 11.2 µM and the Activity [12] was “Active”.
